Measured values: patent US20080089860A1, “Therapeutic compositions and methods useful in treating cancer” (priority 2006, published 2008)

What was measured:
intracellular Flag-PRL-1 = target: T1, intracellular Flag-PRL-1 (Homo sapiens, UniProt Q93096); assay: Immunocomplex PTPase assay, Flag-PRL-1 NIH3T3 transfectants; assay type: cell-based; conditions: cells treated 5 min
T1 construct: expressed in transfected cells
Method: Immunocomplex PTPase assays were performed to assess the effects of sodium stibogluconate on intracellular PTPases. Cells were untreated or treated with sodium stibogluconate for 5 minutes, washed with fresh medium and then lysed in cold lysis buffer (50 mM Tris, pH 7.4; 150 mM NaCl; 1% NP40; 2 mM PMSF; 20 μg/ml of Aprotinin). The lysates were incubated with an anti-Flag antibody in immunoprecipitation assays. The immunocomplexes were collected with protein G sepharose beads (Pharmacia) and washed in cold lysis buffer for 4 times. […] C. for 18 hrs. 100 µL of malachite green solution (UBI) was added to each reaction prior to measurement of OD660 to quantify the amounts of free phosphate cleaved by the PTPases from the peptide substrate (Pathak et al., J. Imumol. 167, 3391 (2001)). The remaining 10% contents of individual samples were analyzed by SDS-PAGE/Western blotting to quantify the relative amounts of the phosphatase proteins. […]
The effects of sodium stibogluconate on intracellular PTPases were assessed using NIH3T3 or WM9 transfectants. […]

[1] = tested on: A549, Hey, LoVo, SK-N-SH, U251 and DU145 cell lines; assay: Growth of human cancer cell lines that express PRLs, MTT assay; assay type: cell-based; conditions: 100 μg/ml, day 6
Method: NIH3T3 (Yi, et al., Blood 85, 87 (1995)), WM9 (Forsberg, et al., Proc. Nat. Acad. Sci. USA 90, 393 (1993)), DU145 (Mickey, et al., Cancer Res. 37, 4049 (1977)), LoVo (Drewinko, et al., Cancer Res. 36, 467 (1976)), HEY (Buick, et al., Cancer Res. 45, 3668 (1985)), U251 (Yoshida, et al., Cancer 50, 410 (1982)), A549 (Giard, et al., J. Natl. Cancer Inst. 51, 1417 (1973)) and SK-N-SH (Helson, et al., Cancer Res. 35, 2594 (1975)) cell lines have been described and were cultured in RPMI 1640 supplemented with 10% fetal calf serum (FCS). For measurement of sodium stibogluconate effects on cell growth in vitro, cells were cultured in the absence (−) or presence (+) of various amounts of sodium stibogluconate for 6 days with viable cells quantified by MTT assays (Mosmann, J. Immunol. Methods 65, 55 (1983)). Percentages of growth inhibition by sodium stibogluconate were calculated (.+−.x %).

WM35 cells = assay: WM35 melanoma cell growth; assay type: cell-based, human
Method: For cell proliferation assays, cells were grown in 10% FCS culture medium containing various amounts of IFNs and/or sodium stibogluconate in 96 well plates and cultured at 37° C. for 3 or 6 days as indicated. The numbers of viable cells in proliferation assays were determined by MTT assays as described in Phatak et al., J. Immunol. 167, 3391 (2001).

PTP1B = target: T2, PTP1B (Homo sapiens, UniProt P18031); assay: In vitro PTPase assay, GST/PTP1B; assay type: biochemical; conditions: 0.1 to 1 μg/ml
T2 construct: purchased Upstate Biotechnology Inc. (Lake Placid, N.Y.)
Method: In vitro PTPase activities were measured using the commercial protein tyrosine phosphatase assay kit (Upstate Biotechnology, Inc. (“UBI”)) following established procedure known to one of skill in the art. This assay measures the in vitro dephosphorylation of a synthetic phosphotyrosine peptide of the sequence Arg-Arg-Leu-Ile-Glu-Asp-Ala-Gle-T- -yr-Ala-Ala-Arg-Gly, wherein the tyrosine is phosphorylated (SEQ ID NO: 3). Briefly, 0.01 µg of GST/PTPase fusion proteins was incubated in 50 µl of Tris buffer (10 mM Tris, pH 7.4) containing different concentrations of inhibitors or chemicals (0-1,000 µg/ml) at 22° C. for 10 minutes, followed by addition of 0.2 mM of the phosphotyrosine peptide and incubation at 22° C. for 18 hours. 100 µl of Malachite Green solution was added and incubated for 5 minutes, and the absorbance at 660 nm was measured after 5 minutes.
In vitro PTPase assays were used to determine the effects of levamisole (Sigma), pentamidine (American Pharmaceutical Partners, Inc.), and ketoconazole (Sigma) on recombinant PTPases, following established procedures (Pathak et al., J. Imumol. 167, 3391 (2001); Pathak et al., Leukemia 16, 2285 (2002), Yi et al., J. Immunol. 169, 5978 (2002)) using a synthetic phosphotyrosine peptide or DiFMUP as the substrate as detailed above in section I.A.2.

[2] = cited from earlier work
[3] = tested on: Stat1 tyrosine phosphorylation; assay: IFN-alpha-induced Stat1 tyrosine phosphorylation, Western blotting; assay type: cell-based, human
Method: Cell lysates were prepared by lysing cells in cold lysis buffer for 30 min and cleared by centrifuging at 14,000 rpm at 4° C. for 15 min. For SDS-PAGE, cell lysates were mixed with equal volume of 2×SDS-PAGE sample buffer, heated at 90° C. for 5 min and separated in 10% SDS-PAGE gels. Cellular proteins in SDS-PAGE gels were transferred to nitrocellulose membrane (Schleicher & Schuell, Keene, N.H.), blocked in 5% milk, probed with antibodies and detected by using an enhanced chemiluminescence kit (ECL, Amersham, Arlington Heights, Ill.).

Jurkat cells = assay: IFN-gamma secretion by Jurkat cells, ELISA; assay type: cell-based, human; conditions: 16 hrs
Method: Jurkat cells were cultured in the absence or presence of various amounts of SSG for 16 hours. The cells and culture medium supernatants were separated by centrifugation (1,000 g, 10 min). The amounts of IFN-gamma in the culture medium supernatants were quantified using an ELISA kit (R.D. system, Minneapolis, Minn.) following the manufacturer's protocol.

T1 sequence (Q93096 whole entry): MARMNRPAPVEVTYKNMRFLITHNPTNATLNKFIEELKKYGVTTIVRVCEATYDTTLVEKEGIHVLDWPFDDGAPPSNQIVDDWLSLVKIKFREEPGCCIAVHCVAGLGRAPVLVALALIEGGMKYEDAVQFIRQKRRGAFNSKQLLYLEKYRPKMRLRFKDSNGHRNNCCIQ
T2 sequence (P18031 whole entry, species assumed): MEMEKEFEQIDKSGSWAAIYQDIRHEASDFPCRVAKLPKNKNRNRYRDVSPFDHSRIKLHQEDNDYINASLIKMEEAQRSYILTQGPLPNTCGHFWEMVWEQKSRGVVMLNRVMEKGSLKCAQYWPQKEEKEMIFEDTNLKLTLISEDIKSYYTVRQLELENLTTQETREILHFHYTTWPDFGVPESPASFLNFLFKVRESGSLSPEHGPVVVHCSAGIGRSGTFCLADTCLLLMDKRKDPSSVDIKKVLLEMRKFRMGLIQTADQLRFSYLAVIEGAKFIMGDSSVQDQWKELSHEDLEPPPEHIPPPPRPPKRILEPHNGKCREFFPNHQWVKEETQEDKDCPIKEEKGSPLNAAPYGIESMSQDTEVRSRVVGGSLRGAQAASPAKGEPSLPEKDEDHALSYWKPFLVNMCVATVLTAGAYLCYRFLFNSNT

## O.O.O.O.O.O.O.O.O.O=C([O-])[C@@H]1[O][Sb]2([O-])([O][Sb]34([OH])[O][C@H]([C@H](O)CO)[C@H]([O]3)[C@H](C(=O)[O-])[O]4)[O][C@H]([C@H](O)CO)[C@@H]1[O]2.[Na+].[Na+].[Na+] [sodium stibogluconate]
Intracellular Flag-PRL-1
  PTPase activity of immunocomplexes from treated Flag-PRL-1 transfectants: little PTPase activities
[1]
  cell killing of the cell lines: near-complete cell killing
WM35 cells
  effect on WM35 melanoma cell line: minimally affected
PTP1B
  inhibition of PTP1B activity: only modestly effective
[2]; human, in vivo
  clinical tolerability at therapeutic dosages: well tolerated
[2]; standard dosage 10-20 mg/kg/day
  serum levels: ≥ 10000 ng/mL
[3]
  IFN-alpha-induced Stat1 tyrosine phosphorylation in WM35 and WiT49-N1 cell lines: failed to enhance
  Stat1 tyrosine phosphorylation in DR cells in the absence of IFN-alpha: failed to induce
[3]; 10 μg/ml, 30 min post-stimulation
  IFN-alpha-induced Stat1 tyrosine phosphorylation in DR cells: approximately two folds greater than control
[3]; 5 hours post-stimulation
  IFN-alpha-induced Stat1 tyrosine phosphorylation in WM9 and DU145 cell lines: Enhanced
Jurkat cells
  IFN-gamma secretion by Jurkat T cells: increased amounts of IFN-gamma
